Biological target: PD-1/PD-L1 protein/protein interaction (Homo sapiens (Human), UniProt Q9NZQ7)
Test: PD-1/PD-L1 Homogeneous Time-Resolved Fluorescence (HTRF) Binding Assay
Conditions: recombinant human PD-L1 (19-238) His-tag 10 nM, human PD-1 (25-167) Fc tag 3 nM; 25° C., PBS pH 7.4
Method: Example A. PD-1/PD-L1 Homogeneous Time-Resolved Fluorescence (HTRF) Binding Assay
The assays were conducted in a standard black 384-well polystyrene plate with a final volume of 20 μL. Inhibitors were first serially diluted in DMSO and then added to the plate wells before the addition of other reaction components. The final concentration of DMSO in the assay was 1%. The assays were carried out at 25° C. in the PBS buffer (pH 7.4) with 0.05% Tween-20 and 0.1% BSA. Recombinant human PD-L1 protein (19-238) with a His-tag at the C-terminus was purchased from AcroBiosystems (PD1-H5229). Recombinant human PD-1 protein (25-167) with Fc tag at the C-terminus was also purchased from AcroBiosystems (PD1-H5257). PD-L1 and PD-1 proteins were diluted in the assay buffer and 10 μL was added to the plate well. Plates were centrifuged and proteins were preincubated with inhibitors for 40 minutes. The incubation was followed by the addition of 10 μL of HTRF detection buffer supplemented with Europium cryptate-labeled anti-human IgG (PerkinElmer-AD0212) specific for Fc and anti-His antibody conjugated to SureLight®-Allophycocyanin (APC, PerkinElmer-AD0059H). After centrifugation, the plate was incubated at 25° C. for 60 min. before reading on a PHERAstar FS plate reader (665 nm/620 nm ratio). Final concentrations in the assay were—3 nM PD1, 10 nM PD-L1, 1 nM europium anti-human IgG and 20 nM anti-His-Allophycocyanin. IC50 determination was performed by fitting the curve of percent control activity versus the log of the inhibitor concentration using the GraphPad Prism 5.0 software.

Chain of PD-1/PD-L1 protein/protein interaction (Q9NZQ7 19-238): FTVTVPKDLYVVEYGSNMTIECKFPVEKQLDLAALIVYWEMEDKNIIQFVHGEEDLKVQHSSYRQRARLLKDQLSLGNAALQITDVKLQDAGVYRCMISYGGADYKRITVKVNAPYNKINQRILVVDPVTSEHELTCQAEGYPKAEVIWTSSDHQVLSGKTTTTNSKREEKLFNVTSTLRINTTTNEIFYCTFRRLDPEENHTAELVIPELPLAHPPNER

IC50	Structure (SMILES)
0.1 to 0.5 µM	Cn1cc(CNCCO)cc(C(=O)Nc2cccc(C3CCCCC3)c2C#N)c1=O [Example 3, N-(2-cyano-3-cyclohexylphenyl)-5-{[(2-hydroxyethyl)amino]methyl}-1-methyl-2-oxo-1,2-dihydropyridine-3-carboxamide]
≤ 0.1 µM	Cc1c(NC(=O)c2cc(CNCCO)cn(C)c2=O)cccc1-c1ccccc1 [Example 2, 5-{[(2-hydroxyethyl)amino]methyl}-1-methyl-N-(2-methylbiphenyl-3-yl)-2-oxo-1,2-dihydropyridine-3-carboxamide]
≤ 0.1 µM	Cc1c(NC(=O)c2cc(CNCCO)cn(C)c2=O)cccc1-c1ccc2c(c1)OCCO2 [Example 13, N-[3-(2,3-dihydro-1,4-benzodioxin-6-yl)-2-methylphenyl]-5-{[(2-hydroxyethyl)amino]methyl}-1-methyl-2-oxo-1,2-dihydropyridine-3-carboxamide]
≤ 0.1 µM	Cc1c(NC(=O)c2cc(CNCCO)cn(C)c2=O)cccc1-c1cccc2c1cnn2C [Example 11, 5-{[(2-hydroxyethyl)amino]methyl}-1-methyl-N-[2-methyl-3-(1-methyl-1H-indazol-4-yl)phenyl]-2-oxo-1,2-dihydropyridine-3-carboxamide]
≤ 0.1 µM	Cc1c(NC(=O)c2cc(CN3CCCC[C@H]3C(=O)O)cn(C)c2=O)cccc1-c1ccccc1 [Example 1, (2S)-1-[(1-methyl-5-{[(2-methylbiphenyl-3-yl)amino]carbonyl}-6-oxo-1,6-dihydropyridin-3-yl)methyl]piperidine-2-carboxylic acid]

More lines, now with the values behind:

Structure (SMILES)	IC50
CCn1cc(CNCCO)cc(C(=O)Nc2cccc(-c3ccccc3)c2C)c1=O [Example 10, 1-ethyl-5-{[(2-hydroxyethyl)amino]methyl}-N-(2-methylbiphenyl-3-yl)-2-oxo-1,2-dihydropyridine-3-carboxamide]	0.1 to 0.5 µM
Cn1cc(CNCCO)cc(C(=O)Nc2cccc(-c3cccc4c3cnn4C)c2C#N)c1=O [Example 8, N-(2-cyano-3-(1-methyl-1H-indazol-4-yl)phenyl)-5-((2-hydroxyethylamino)methyl)-1-methyl-2-oxo-1,2-dihydropyridine-3-carboxamide]	≤ 0.1 µM
Cn1cc(CNCCO)cc(C(=O)Nc2cccc(-c3ccccc3F)c2C#N)c1=O [Example 6, N-(2-cyano-2′-fluorobiphenyl-3-yl)-5-{[(2-hydroxyethyl)amino]methyl}-1-methyl-2-oxo-1,2-dihydropyridine-3-carboxamide]	≤ 0.1 µM
CCn1cc(CN2CCCC[C@H]2C(=O)O)cc(C(=O)Nc2cccc(-c3ccccc3)c2C)c1=O [Example 9, (2S)-1-[(1-ethyl-5-{[(2-methylbiphenyl-3-yl)amino]carbonyl}-6-oxo-1,6-dihydropyridin-3-yl)methyl]piperidine-2-carboxylic acid]	0.5 to 10 µM
Cn1cc(CNCCO)cc(C(=O)Nc2cccc(-c3ccc4c(c3)OCCO4)c2C#N)c1=O [Example 4, N-[2-cyano-3-(2,3-dihydro-1,4-benzodioxin-6-yl)phenyl]-5-{[(2-hydroxyethyl)amino]methyl}-1-methyl-2-oxo-1,2-dihydropyridine-3-carboxamide]	≤ 0.1 µM
Cn1cc(CNCCO)cc(C(=O)Nc2cccc(-c3ccccc3)c2C#N)c1=O [Example 7, N-(2-cyanobiphenyl-3-yl)-5-{[(2-hydroxyethyl)amino]methyl}-1-methyl-2-oxo-1,2-dihydropyridine-3-carboxamide]	0.1 to 0.5 µM
COc1cccc(-c2cccc(NC(=O)c3cc(CNCCO)cn(C)c3=O)c2C#N)c1 [Example 5, N-(2-cyano-3′-methoxybiphenyl-3-yl)-5-{[(2-hydroxyethyl)amino]methyl}-1-methyl-2-oxo-1,2-dihydropyridine-3-carboxamide]	≤ 0.1 µM
COc1cccc(-c2cccc(NC(=O)c3cc(CNCCO)cn(C)c3=O)c2C)c1F [Example 12, N-(2′-fluoro-3′-methoxy-2-methylbiphenyl-3-yl)-5-((2-hydroxyethylamino)methyl)-1-methyl-2-oxo-1,2-dihydropyridine-3-carboxamide]	≤ 0.1 µM

— patent publication US11718605B2, “Heterocyclic compounds as immunomodulators” (Incyte Corporation, priority 2016, dated 2023)
